In patent US20090318493A1 (Roche Palo Alto LLC, priority 2008, published 2009):
Like-named read-outs stand apart in the source and are kept apart here.

Experiments:
Type in all cases: binding
hSERT transporter = biological target: T1, hSERT transporter (Homo sapiens, UniProt P31645); experiment: Human serotonin transporter (hSERT) scintillation proximity assay, competition with [3H]-Citalopram
T1 construct: expressed in transfected cells; membranes prepared
Description: Screening for Human Serotonin Transporter (hSERT) Antagonists Using a Scintillation Proximity Assay (SPA)
The screening assay of this example was used to determine the affinity of ligands at the hSERT transporter by competition with [^3H]-Citalopram.
Scintillation Proximity Assay (SPA) works by bringing radioligand within close proximity to the bead's scintillant to stimulate light emission. In this assay, the receptor-containing membranes were pre-coupled to the SPA beads and the binding of the appropriate radioligand to the transporter was measured. The light emission was proportional to the amount of bound radioligand. Unbound radioligand produced no signal as a result of distant proximity to scintillant (lack of energy transfer).
Cells are released from culture flasks using PBS for 1-2 minutes. The cells were subsequently centrifuged at 1000 g's for 5 minutes and resuspended in PBS prior to being used in the membrane preparation.
(§1) Cell membranes were prepared using a membrane preparation buffer of 50 mM TRIS (pH 7.4). Cell membranes were prepared from a single cube (7.5×10^9 cells total). Cells were homogenized using a Polytron (setting medium for a 4 second burst). The homogenate was then centrifuged at 48,000×g for 15 minutes, the supernatant subsequently removed and discarded, and the pellet resuspended with fresh buffer. After a second centrifugation, the pellet was re-homogenized and brought to a final volume determined during the assay. Typically, membrane portions were aliquoted in 3 mg/ml (w:v). and stored at −80° C.
Compounds of the invention were diluted from 10 mM to 0.1 nM FAC (10 point curves, whole log/half log dilutions) via a Beckman Biomek 2000 using a serial dilution protocol. The test compounds were then transferred (20 μl/well) and the [^3H]-Citalopram radioligand was added at 50 μl/well. Membrane and beads were prepared to a ratio of 10 μg: 0.7 mg, with 0.7 mg PVT-WGA Amersham beads (Cat# RPQ0282V) added per well. 130 μl of the membrane: bead mixture was added to the assay plate.
The % inhibition was calculated for each compound tested [(Compound counts per minute (CPM) at maximum concentration-Non-Specific CPM)/Total CPM*100].
(§2) where max=total binding, min=non specific binding, x=concentration (M) of the tested compound and n=Hill slope. The inhibition dissociation constant (Ki) of each compound was determined according to the method of Cheng-Prusoff and then converted into negative logarithm (pKi) of the Ki.

hNET transporter = biological target: T2, hNET transporter (Homo sapiens, UniProt P23975); experiment: Human norepinephrine transporter (hNET) scintillation proximity assay, competition with [3H]-Nisoxetine
T2 construct: expressed in transfected cells; membranes prepared
Method: This assay was used to determine the affinity of ligands for the hNET transporter by competition with [^3H]-Nisoxetine. As in the hSERT assay of the above example, receptor-containing membranes were pre-coupled to the SPA beads and the binding of the appropriate radioligand to the transporter was measured. The light emission was proportional to the amount of bound radioligand, with unbound radioligand producing no signal.
HEK-293 cells (Tatsumi et al., Eur. J. Pharmacol. 1997, 30, 249-258) stably expressing recombinant hNET (Clone: HEK-hNET #2) were maintained with media (DMEM hi glucose with 10% FBS, 300 μg/ml G418 and 2 mM L-Glutamine) and incubated at 37° C. with 5% CO2. Cells were released from culture flasks using PBS for 1-2 minutes. The cells were subsequently centrifuged at 1000 g's for 5 minutes and resuspended in PBS prior to being used in the membrane preparation.
as §1, with “(7.5×10^9cells” for “(7.5×10^9 cells”, “3-6 mg/mil” for “3 mg/ml”
^3[H] […] Compounds of the invention were diluted from 10 mM to 0.1 nM FAC (10 point curves, whole log /half log dilutions) via a Beckman Biomek 2000 using a serial dilution protocol. The test compounds were then transferred (20 μl/well) and the radioligand was added at 50 μl/well. Membrane and beads were prepared to a ratio of 10 μg: 0.7 mg, with 0.7 mg PVT-WGA Amersham beads (Cat# RPQ0282V) added per well. 130 μl of the membrane: bead mixture was added to the assay plate. The mixtures were allowed to stand at room temperature for one hour, and were then counted on a Packard TopCount LCS, a generic SPA counting protocol settings (Energy Range: Low, Efficiency Mode: Normal, Region A: 1.50-35.00, Region B: 1.50-256.00, Count Time (min.): 0.40, Background Subtract: none, Half-Life Correction: no, Quench Indicator: tSIS, Platemap blank subtraction: No, Cross talk reduction: Off).
The % inhibition was calculated for each compound tested [(Compound CPM at maximum concentration-Non-Specific CPM)/Total CPM*100]. The concentration producing 50% inhibition (IC50) was determined using an iterative non-linear curve fitting technique with Activity Base/Xlfit using the following equation:
as §2

hDAT = biological target: T3, hDAT (Homo sapiens, UniProt Q01959); experiment: Human dopamine transporter scintillation proximity assay, competition with [3H]-Vanoxerine
T3 construct: expressed in transfected cells; plated whole cells
Method: This assay was used to determine the affinity of ligands for the dopamine transporter by competition with [^3H]-Vanoxerine.
Cells were plated four hours prior to experiment by placing approximately 30,000 cells per well (in PBS) on white, opaque Cell-Tak coated 96 well plates. Extra buffer was apriated from the cell plates using an ELx405 plate washer.
Compounds of the invention were diluted from 10 mM to 0.1 nM FAC (10 point curves, whole log/half log dilutions) via a Beckman Biomek 2000 using a 10-point dilution protocol. The mixtures were allowed to stand at room temperature for 30 minutes, and were then counted on a Packard TopCount LCS, a generic SPA counting protocol settings, Count Time (min.): 0.40, Background Subtract: none, Half-Life Correction: none, Quench Indicator: tSIS, Platemap blank subtraction: none, Cross talk reduction: Off).
The % inhibition was calculated for each compound tested [(Compound CPM at maximum concentration-Non-Specific CPM)/Total CPM*100].
as §2

[1] = Table 1, read-out: pIC50 NET (converted)
[2] = Table 1, read-out: pIC50 DAT (converted)
[3] = Table 1, read-out: pIC50 SERT (converted)

T3 sequence (Q01959 whole entry): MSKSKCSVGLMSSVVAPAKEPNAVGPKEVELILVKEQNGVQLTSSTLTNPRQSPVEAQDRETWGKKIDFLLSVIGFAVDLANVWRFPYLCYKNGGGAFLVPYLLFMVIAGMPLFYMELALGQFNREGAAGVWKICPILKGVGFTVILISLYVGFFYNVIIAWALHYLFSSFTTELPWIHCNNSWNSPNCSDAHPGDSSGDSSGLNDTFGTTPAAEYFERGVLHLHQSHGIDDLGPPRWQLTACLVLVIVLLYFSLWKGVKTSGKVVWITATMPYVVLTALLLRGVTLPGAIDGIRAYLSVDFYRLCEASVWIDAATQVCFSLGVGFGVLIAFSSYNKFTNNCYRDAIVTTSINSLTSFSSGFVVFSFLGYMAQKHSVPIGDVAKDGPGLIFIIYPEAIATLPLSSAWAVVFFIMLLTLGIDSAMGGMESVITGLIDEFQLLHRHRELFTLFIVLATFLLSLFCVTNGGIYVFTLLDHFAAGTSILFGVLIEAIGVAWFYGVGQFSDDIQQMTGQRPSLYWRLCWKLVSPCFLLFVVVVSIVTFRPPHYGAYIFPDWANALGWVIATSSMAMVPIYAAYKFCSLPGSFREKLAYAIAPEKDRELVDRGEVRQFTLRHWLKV
T2 sequence (P23975 whole entry): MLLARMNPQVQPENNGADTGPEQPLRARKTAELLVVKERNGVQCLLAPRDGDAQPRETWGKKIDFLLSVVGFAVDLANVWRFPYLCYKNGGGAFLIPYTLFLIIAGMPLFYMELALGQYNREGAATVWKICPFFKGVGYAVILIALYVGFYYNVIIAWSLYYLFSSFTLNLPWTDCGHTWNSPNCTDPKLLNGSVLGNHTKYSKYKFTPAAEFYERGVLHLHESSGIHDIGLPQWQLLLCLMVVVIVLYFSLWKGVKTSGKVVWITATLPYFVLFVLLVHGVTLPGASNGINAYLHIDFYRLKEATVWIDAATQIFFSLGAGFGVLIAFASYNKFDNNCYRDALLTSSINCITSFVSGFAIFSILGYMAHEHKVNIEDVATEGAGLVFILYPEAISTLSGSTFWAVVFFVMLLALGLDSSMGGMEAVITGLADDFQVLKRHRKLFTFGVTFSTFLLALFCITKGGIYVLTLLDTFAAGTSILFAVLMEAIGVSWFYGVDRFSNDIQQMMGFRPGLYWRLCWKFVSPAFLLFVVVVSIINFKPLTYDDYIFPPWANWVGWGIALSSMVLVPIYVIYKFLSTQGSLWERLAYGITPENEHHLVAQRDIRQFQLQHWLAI
T1 sequence (P31645 whole entry): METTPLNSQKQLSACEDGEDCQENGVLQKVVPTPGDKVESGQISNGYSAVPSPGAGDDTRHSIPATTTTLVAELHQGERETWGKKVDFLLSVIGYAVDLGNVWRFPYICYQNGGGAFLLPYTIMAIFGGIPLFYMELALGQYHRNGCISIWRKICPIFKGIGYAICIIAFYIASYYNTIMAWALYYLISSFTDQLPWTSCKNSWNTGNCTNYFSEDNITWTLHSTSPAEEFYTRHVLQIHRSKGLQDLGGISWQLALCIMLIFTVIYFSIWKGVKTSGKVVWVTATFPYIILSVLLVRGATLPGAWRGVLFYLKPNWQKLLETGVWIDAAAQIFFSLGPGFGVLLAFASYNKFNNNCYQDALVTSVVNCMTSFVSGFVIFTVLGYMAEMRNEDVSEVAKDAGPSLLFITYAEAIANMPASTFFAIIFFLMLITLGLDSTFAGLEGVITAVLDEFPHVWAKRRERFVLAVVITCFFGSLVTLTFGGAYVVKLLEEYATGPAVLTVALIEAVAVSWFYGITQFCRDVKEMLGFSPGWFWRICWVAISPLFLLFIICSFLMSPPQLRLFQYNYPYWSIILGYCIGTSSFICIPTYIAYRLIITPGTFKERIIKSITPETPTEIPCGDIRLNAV

Row | SMILES | IC50 (hSERT transporter) [nM] | IC50 (hNET transporter; [1]) [nM] | IC50 (hDAT) [nM] | IC50 (hDAT; [2]) [nM] | further results
1 | CCCC[C@@]1(C(=O)c2ccc(Cl)c(Cl)c2)CC[C@@H]2CC[C@H]1N2C (mixture of isomers) [Compound 54, ((1R,2R,SR)-2-Butyl-8-methyl-8-aza-bicyclo[3.2.1]oct-2-yl)-(3,4-dichloro-phenyl)-methanone] | 331 | 501 | 28.2 |  | 
2 | CC(C)CC1(C(=O)c2cc(F)c(N)c(Cl)c2)CCNC1 (stereo in doubt) [Compound 24, (4-Amino-3-chloro-5-fluoro-phenyl)-((R)-3-isobutyl-pyrrolidin-3-yl)-methanone] | 24.5 | 20 | 25.1 |  | 
3 | CCCC1(C(=O)c2ccc(Cl)c(Oc3ccccc3)c2)CCNC1 (stereo in doubt) [Compound 29, (4-Chloro-3-phenoxy-phenyl)-((S)-3-propyl-pyrrolidin-3-yl)-methanone] | 13.2 | 2.63 | 10.5 |  | 
4 | CCCC1(C(=O)c2ccc(Cl)c(Oc3ccccc3)c2)CCNC1 (stereo in doubt) [Compound 30, (4-Chloro-3-phenoxy-phenyl)-((R)-3-propyl-pyrrolidin-3-yl)-methanone] | 18.6 | 24 | 2.34 |  | 
5 | Cc1cc(C(=O)C2(CCC(C)(C)C)CCNC2)ccc1Cl (stereo not shown) [Compound 1, (4-Chloro-3-methyl-phenyl)-[3-(3,3-dimethyl-butyl)-pyrrolidin-3-yl]-methanone] | 1.51 | 5.5 | 6.31 |  | 
6 | CC(C)C[C@@]1(C(=O)c2ccc(Cl)c(Cl)c2N)CCNC1 [Compound 2, (2-Amino-3,4-dichloro-phenyl)-((R)-3-isobutyl-pyrrolidin-3-yl)-methanone] | 2.19 |  |  | 692 | IC50 (hNET transporter): 38 nM
7 | CCCC[C@]1(C(=O)c2ccc(Cl)c(Cl)c2N)CC2CC[C@H]1N2 [Compound 3] | 83.2 | 182 | 70.8 |  | 
8 | CC(C)(C)CCOc1cc(C(=O)C2(CCC(C)(C)C)CCNC2)ccc1Cl (stereo not shown) [Compound 4, [4-Chloro-3-(3,3-dimethyl-butoxy)-phenyl]-[3-(3,3-dimethyl-butyl)-pyrrolidin-3-yl]-methanone] |  | 912 |  | 1000 | IC50 (hSERT transporter; [3]): 85.1 nM
9 | CC(C)(C)CCC1(C(=O)c2ccc(Cl)c(OCc3ccccc3)c2)CCNC1 (stereo not shown) [Compound 5, (3-Benzyloxy-4-chloro-phenyl)-[3-(3,3-dimethyl-butyl)-pyrrolidin-3-yl]-methanone] |  | 363 |  | 1450 | 
10 | COC(C)(C)CCC1(C(=O)c2cc(F)c3[nH]ccc3c2)CCNC1 (stereo not shown) [Compound 6] | 1.07 | 4.79 | 15.5 |  | 
11 | CC(C)(C)CCC1(C(=O)c2cc(Cl)c(N)c(C(F)(F)F)c2)CCNC1 (stereo not shown) [Compound 7, (4-Amino-3-chloro-5-trifluoromethyl-phenyl)-[3-(3,3-dimethyl-butyl)-pyrrolidin-3-yl]-methanone] | 38 |  |  | 955 | IC50 (hNET transporter): 15.8 nM
12 | CC(C)(C)CCC1(C(=O)c2ccc(Cl)c(Oc3ccc(F)cc3)c2)CCNC1 (stereo not shown) [Compound 8, [4-Chloro-3-(4-fluoro-phenoxy)-phenyl]-[3-(3,3-dimethyl-butyl)-pyrrolidin-3-yl]-methanone] |  | 77.6 |  | 1410 | IC50 (hSERT transporter; [3]): 120 nM
13 | CC(C)(C)CCC1(C(=O)c2ccc(Cl)c(Oc3ccccc3F)c2)CCNC1 (stereo not shown) [Compound 9, [4-Chloro-3-(2-fluoro-phenoxy)-phenyl]-[3-(3,3-dimethyl-butyl)-pyrrolidin-3-yl]-methanone] |  | 45.7 |  | 1120 | 
14 | CCCC1(C(=O)c2ccc(Cl)c(OCc3ccccc3)c2)CCNC1 (stereo not shown) [Compound 10, (3-Benzyloxy-4-chloro-phenyl)-(3-propyl-pyrrolidin-3-yl)-methanone] | 20.4 | 1700 |  |  | 
15 | CCCC1(C(=O)c2ccc(Cl)c(OCCC(C)(C)C)c2)CCNC1 (stereo not shown) [Compound 11, [4-Chloro-3-(3,3-dimethyl-butoxy)-phenyl]-(3-propyl-pyrrolidin-3-yl)-methanone] | 52.5 | 631 |  | 1480 | 
16 | CCCC1(C(=O)c2ccc(Cl)c(OCC3CCOCC3)c2)CCNC1 (stereo not shown) [Compound 13, [4-Chloro-3-(tetrahydro-pyran-4-ylmethoxy)-phenyl]-(3-propyl-pyrrolidin-3-yl)-methanone] |  |  |  |  | IC50 (hSERT transporter; [3]): 145 nM
17 | CCCC1(C(=O)c2ccc(Cl)c(OC(F)(F)F)c2)CCNC1 (stereo not shown) [Compound 14, (4-Chloro-3-trifluoromethoxy-phenyl)-(3-propyl-pyrrolidin-3-yl)-methanone] | 2.75 | 302 |  |  | 
18 | CCCC1(C(=O)c2ccc(Br)c(Oc3ccccc3)c2)CCNC1 (stereo not shown) [Compound 20, (4-Bromo-3-phenoxy-phenyl)-(3-propyl-pyrrolidin-3-yl)-methanone] | 12.6 | 7.94 |  |  | 
19 | CC[C@@]1(C(=O)c2ccc(Cl)c(Cl)c2)CC[C@@H]2CC[C@H]1N2C [Compound 53, (3,4-Dichloro-phenyl)-((1R,2R,5R)-2-ethyl-8-methyl-8-aza-bicyclo[3.2.1]oct-2-yl)-methanone] | 41.7 |  | 288 |  | 
20 | CCCC1(C(=O)c2ccc(Cl)c(-c3cccnc3)c2)CCCNC1 (stereo not shown) [Compound 55, (4-Chloro-3-pyridin-3-yl-phenyl)-(3-propyl-piperidin-3-yl)-methanone] |  |  |  |  | IC50 (hSERT transporter; [3]): 245 nM
21 | CCCC1(C(=O)c2ccc(-n3ccnc3)c(Br)c2)CCCNC1 (stereo not shown) [Compound 57, (3-Bromo-4-imidazol-1-yl-phenyl)-(3-propyl-piperidin-3-yl)-methanone] | 91.2 |  |  | 4270 | 
22 | CCCC1(C(=O)c2ccc(Cl)c(-n3ccnc3)c2)CCCNC1 (stereo not shown) [Compound 58, (4-Chloro-3-imidazol-1-yl-phenyl)-(3-propyl-piperidin-3-yl)-methanone] | 79.4 |  |  | 1480 | 
23 | CCCC1(C(=O)c2ccc3ccccc3c2)CCNC1 (stereo not shown) [naphthalen-2-yl-(3-propyl-pyrrolidin-3-yl)-methanone] |  |  |  |  | Ki (hSERT transporter; SPA, [3H]-Citalopram, approximate value, read-out: pKi human serotonin transporter (converted)): ~0.151 nM
